# From PubChem BioAssay AID179 (DTP/NCI, 2004)
# The source made the active and inactive calls.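 Rule for the calls: active = compounds giving half or more protection of infected cells from virus-caused growth loss, again on retest; inactive = the rest.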
# System: CEM cells HIV-1 protection, formazan growth assay
# Test: NCI AIDS Antiviral Assay
# Conditions: for IC50: measured here: growth of uninfected CEM cells
# In short: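 Soluble formazan readout of cell growth; CEM cells ± HIV-1; 5 drug concs. ≥50% protection → retest; ≥50% again = moderately active; reproducible 100% = confirmed active.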
SMILES,EC50 [µM],IC50 [µM],outcome
CCCC(CC)c1cc(O)c(O)cc1C(CC)CCC (stereo unspecified),> 200,105,–
CC(=O)NC1(C)C2CCC3(C)N=C(C)C1CC3C2 (stereo unspecified),–,–,inactive
O=c1c2cc([N+](=O)[O-])cnc2sn1-c1ccc([N+](=O)[O-])cc1,> 200,63.1,–
CC1(C)CCc2ccc(OCCC(=O)O)cc2O1,–,–,inactive
CCCC1=C(CC)C(C(=O)Nc2c(C)cccc2C)=NC(S)N1 (stereo unspecified),> 107,> 107,–
Cc1ccc(/C=N/NS(=O)(=O)c2ccc(/C=C3\NC(=O)NC3=O)cc2)cc1,> 200,> 200,–
O=C(Nc1ccc(C2=NCCN2)cc1)c1ccc(C(=O)Nc2ccc(C3=NCCN3)cc2)c(Br)c1,8.32,20.9,–
CCOC(=O)c1noc(Oc2ccc(Cl)cc2Cl)n1,> 44.7,25.1,–
OCC1OC(n2cnc3c(I)ncnc32)C(O)C1O (stereo unspecified),–,–,inactive
Nc1ncnc2c1ncn2C1C(=O)C(CO)C1CO (stereo unspecified),> 234,> 234,–
O=C(O)c1cc2ccccc2c(I)c1O,> 200,105,–
CCCCCCCC(=O)c1ccc(O)c(-c2nc3ccc(C(F)(F)F)cc3[nH]2)c1,> 24.5,2.09,–
COc1ccc(/C(=N/Nc2ccccc2)C(c2ccc(OC)cc2)C2OC(=O)c3ccccc32)cc1 (stereo unspecified),> 28.2,> 28.2,–
CC(=O)O[C@H]1CC[C@@]2(C)C(CC[C@]3(C)C2CC[C@]2(C)Oc4c(C)cc(O)cc4C[C@@H]23)C1(C)C (stereo partly specified),–,–,inactive
O=S(=O)(SSS(=O)(=O)c1ccccc1)c1ccccc1,> 75.9,> 75.9,–
Cc1c2c(n3c(nc4ccccc43)c1C#N)N(c1ccc(Cl)cc1)CC2,> 50.1,> 50.1,–
O=C(O)c1cccc(S(=O)(=O)c2ccccc2)c1,> 200,> 200,–
C=C1c2c(C)coc2C(=O)c2c(O)cc(OC)c(C)c21,–,–,inactive
Oc1[nH]c2ccccc2c1N=Nc1nc(-c2ccc(Cl)c(Cl)c2)cs1,> 200,40.7,–
OC1CCOC1(O)c1ccccn1 (stereo unspecified),> 200,> 200,–
COc1cccc2c1OC1(N3CCOCC3)CCCCC1C2C[N+](=O)[O-] (stereo unspecified),> 200,> 200,–
Cc1cccc(C)c1NC(=O)/C(CC(=O)CC(c1ccccc1)c1c(O)c2ccccc2oc1=O)=N/O (stereo unspecified),> 263,204,–
COc1c(Br)cc2ccccc2c1-c1c(OC)c(Br)cc2ccccc12,17.4,> 100,–
Oc1cc2c3c(c1)CCCN3CCC2,> 200,195,–

SMILES,EC50 [µM],IC50 [µM],outcome
O=C(O)C(CS(=O)(=O)O)Nc1ccc([N+](=O)[O-])cc1[N+](=O)[O-] (stereo unspecified),> 692,> 692,–
O=C1OC(CC(=O)c2ccccc2Cl)C(Cl)=C1Cl (stereo unspecified),> 117,69.2,–
O=C(Cc1nc2ccccc2s1)C(=O)Nc1cccc(Cl)c1,–,–,inactive
O=C(NC(OCc1ccccc1)(C(F)(F)F)C(F)(F)F)OCc1ccccc1,> 200,32.4,–
NC(=S)N/N=C1\CCCC\C1=C/c1ccccc1,> 138,112,–
CCN(CC)CCn1nc(N)c2nc3ccccc3nc21,> 200,107,–
COC(=O)CCCC(=O)C1=Nc2ccccc2CN(c2ccc(Cl)cc2)N1,> 200,126,–
CC1(C)C2CCC1(C)C(NC(=O)CCN1CCOCC1)C2 (stereo unspecified),> 851,537,–
Cc1cc(C#N)c(Nc2c(C)cccc2[N+](=O)[O-])s1,> 200,158,–
COc1cc(Br)c(CC2=NCCc3cc(OC)c(OC)cc32)cc1OC,–,–,inactive
NC(Cc1ccc(CP(=O)(O)O)cc1)C(=O)O (stereo unspecified),> 200,> 200,–
CC(C)c1ccc(S(=O)(=O)c2ccc([N+](=O)[O-])cc2[N+](=O)[O-])cc1,> 200,0.851,–
C=C1C(C)C2C(Cc3ccccc3)NC(=O)C23OC(=O)/C=C\CC(=O)CCC(C)C/C=C/C3C1O (stereo unspecified),> 38.9,1.45,–
Cn1ncc2c(c1=O)Nc1ccccc1S2(=O)=O,> 112,> 112,–
COc1ccc2c(ccc3c(C(=O)NCCCN(C)CCCNC(=O)c4cn(C)c5c4ccc4cc(OC)ccc45)cn(C)c32)c1,> 200,1.15,–
[N-]=[N+]=NCN1C(=O)C2C3C=CC(C2C1=O)C1C2C(=O)N(CN=[N+]=[N-])C(=O)C2C31 (stereo unspecified),–,–,inactive
CC(=O)COC(=O)CC(C)=O,–,–,inactive
O=C1CCC2c3[nH]c4ccccc4c3CCN12 (stereo unspecified),> 200,186,–
O=C(Nc1ccc(/C=C/c2ccc(NC(=O)c3cc(S(=O)(=O)O)ccc3O)cc2S(=O)(=O)O)c(S(=O)(=O)O)c1)c1cc(S(=O)(=O)O)ccc1O,93.3,> 200,–
CC(=O)NS(=O)(=O)c1ccc(NC(=O)c2ccccc2SC(=O)CCCCBr)cc1,12.3,148,–
Cc1cc(C)nc(NS(=O)(=O)c2ccc(Nc3c4ccccc4nc4c(C(=O)Nc5ccc(S(=O)(=O)Nc6cc(C)on6)cc5)cccc34)cc2)n1,> 35.5,> 35.5,–
CS(=O)(=O)OCCN1CCN(C(=O)c2ccc(Cl)c3c(Nc4ccc(S(=O)(=O)N=C(N)N)cc4)c4ccccc4nc23)CC1,> 33.9,> 33.9,–
CCOC(=O)c1nc2ccccc2nc1NCc1ccc(OC)cc1,> 138,70.8,–
CC(C)NCCCCCNc1cccc2cccnc12,> 200,28.8,–

SMILES,EC50 [µM],IC50 [µM],outcome
O=C1/C(=C\c2ccccc2Cl)CCCC/C1=C\c1ccccc1Cl,> 200,166,–
CN1/C(=C\N=O)C(C)(C)N(O)C1(C)C,> 200,> 200,–
Cc1nc2ccc(Br)cc2c(=O)n1-c1nnc(C(C)(C)C)s1,> 200,> 200,–
CC(=O)N(/N=C1\CC(c2ccccc2)Oc2ccccc21)C(C)=O (stereo unspecified),> 200,102,–
c1ccc(P2c3ccccc3Nc3ccccc32)cc1,> 200,61.7,–
C/C(CC(O)(/C=N/O)c1ccccc1)=N/O (stereo unspecified),> 200,> 200,–
CCOC(=O)/C(O)=C(/C(=O)OC)c1ccc(Cl)cc1,> 427,> 427,–
CC1=C2C(=CC(C)(C)C2O)C(=O)C(C)(O)C12CC2 (stereo unspecified),–,–,inactive
O=C(/C=C/c1ccccc1)CC(=O)/C=C/c1ccccc1,> 200,30.9,–
Cc1cc(C(=O)CSC(=S)SC(C)(C)C)ccc1Cl,> 30.2,> 30.2,–
Cc1ccc(S(=O)(=O)N2CCCCC2)cc1,> 200,72.4,–
O=C1c2cccc3cccc(c23)C(=O)N1Cc1ccccc1,> 200,61.7,–
Cc1cc(C(=O)c2ccccc2)c2oc(-c3ccccc3)c(Cl)c(=O)c2c1,> 47.9,> 47.9,–
Cc1ccc(C2C(Cl)C(=O)N2NC(=O)c2ccc(N)cc2)cc1 (stereo unspecified),> 200,13.5,–
O=NC1C(Cl)C2CC1C1COCC21 (stereo unspecified),> 1230,> 1230,–
C=C(CN(C)C)C(=O)c1cc(C)ccc1C,> 200,11.2,–
O=C(O)Cn1ccc(=O)c2c([N+](=O)[O-])cccc21,> 200,> 200,–
O=c1ccn([C@@H]2C[C@H]2CO)c(=O)[nH]1,–,–,inactive
CCCCCn1c(=O)c2c(=O)[nH][nH]c2c2ccccc21,> 200,> 200,–
NC(=O)CNC(=O)c1ccccc1SC(=O)OCCBr,7.08,> 200,–
CCCCCCCCC(C)CCCCCCCCC(=O)O (stereo unspecified),–,–,inactive
Cc1cn(C(Cc2ccccc2)OCC[Se]c2ccccc2)c(=O)[nH]c1=O (stereo unspecified),100,> 200,–
CCC(C)c1c(NC(=O)c2ccccc2)o[nH]c1=O (stereo unspecified),> 200,> 200,–
COc1ccc(-c2oc3cc(OC)c(OC)c(OC)c3c(=O)c2OC)cc1OC,> 200,3.8,–

SMILES,EC50 [µM],IC50 [µM],outcome
COc1ccc2nc3ccccc3c(NCCCCCN(CCCl)CCCl)c2c1,> 245,0.282,–
Cc1cn(CC2=NCC(C)(C)N2)c(=O)[nH]c1=O,> 200,93.3,–
Cc1cccc(C)c1NC(=O)C(C#N)C1=C(Cl)C(=O)c2ccccc2C1=O (stereo unspecified),> 26.3,8.71,–
O=C(NCCCOC(=O)CCCCCCCCC(=O)OCCCNC(=O)NC(=O)c1c[nH]c(=O)[nH]c1=O)NC(=O)c1c[nH]c(=O)[nH]c1=O,214,263,–
CCNc1cc2c3c(c1)CCN3CCC2,> 60.3,10.2,–
O=S(OO)c1cc(Cl)c(O)c(Cl)c1 (stereo unspecified),> 1020,> 1020,–
O=C(CC1(O)C(=O)Nc2c(Cl)cc(Cl)cc21)c1ccco1 (stereo unspecified),> 398,83.2,–
CCCCCCCSCC(O)COC(c1ccccc1)(c1ccccc1)c1ccccc1 (stereo unspecified),> 200,30.2,–
O=c1[nH]c2cc(O)ccc2c2cc3c(c(O)c12)OCO3,–,–,inactive
CCn1cc(C(=O)O)c(=O)c2ccc(-c3ccncc3)cc21,–,–,inactive
CN(CCC#N)c1ccc(/C=C2\SC(=S)NC2=O)cc1,> 200,34.7,–
CCOC(=O)CC1NCCc2cc(OC)c(OC)c([N+](=O)[O-])c21 (stereo unspecified),–,–,inactive
O=C(O)c1ccccc1C(=O)NC(Cc1cnc[nH]1)C(=O)O (stereo unspecified),> 200,> 200,–
Nc1nc2c(-c3ccc([N+](=O)[O-])cc3)nnn2c2cccc(Cl)c12,> 3.98,> 3.98,–
CN(C)c1cc(CNCCc2cnc[nH]2)nc(CNCCc2cnc[nH]2)c1,> 200,12.3,–
CCCC(=O)N[C@H]1C2C3CC4C5CC(C42)C1(C)C53 (stereo partly specified),> 275,> 275,–
C/C(Cl)=N\OC(=O)Nc1ccc([N+](=O)[O-])cc1,> 200,10.5,–
N#CC(=N)c1ncn(CCO)c1NC(=O)C(F)(F)F,> 200,> 200,–
O=C(O)/C=C/c1ccc(Oc2ccccc2C(=O)O)o1,> 49,> 49,–
c1ccc(SSc2ccccn2)nc1,> 200,5.13,–
CC1CCCN1c1ccnc2cc(Cl)ccc12 (stereo unspecified),> 1000,288,–
